Patent US20120282296A1, “METHODS FOR IMPROVING THE DESIGN, BIOAVAILABILITY, AND EFFICACY OF DIRECTED SEQUENCE POLYMER COMPOSITIONS VIA SERUM PROTEIN-BASED DETECTION OF DIRECTED SEQUENCE POLYMER COMPOSITIONS” (ARES TRADING SA, priority 2009, published 2012)

Experiments:
[1] = YEAK in serum of mice after IV or SC dosing, detected by anti-YEAK ELISA; type: in vivo
[2] = test system: CCL22; experiment: Acute release of CCL22 (MDC) in serum or plasma after SC YEAK administration in mice; type: in vivo
[3] = test system: monocyte cell line RAW264.7; experiment: CCL22 release bioassay in the monocyte cell line RAW264.7; type: cell-based
Description: Following synthesis of different DSP compositions, for example by solid phase synthesis or by solution phase synthesis, the individual lots or batches made by the same manufacturing process, and individual batches of mixtures manufactured by different processes may be tested and compared for variation using bioassays. Depending on the indication of the DSP composition, appropriate bioassays include the release of CCL22 by the monocyte cell line RAW264.7, ex vivo proliferation assays, and measuring the binding of serum proteins to peptides in the DSP composition. Using these bioassays, one may determine subsets of peptides or even individual peptides that are present in any given process or lot. Processes and lots of DSP compositions will be compared to determine whether the same subsets of peptides and/or types of peptides are consistently represented across the different processes and lots.

[4] = test system: Ig fraction of rabbit polyserum; experiment: ELISA with Ig fraction of rabbit polyserum; type: binding
[5] = various species, including man; cited from earlier work
[6] = mice dosed IV 4 mg/kg or SC 21 mg/kg, route for this value not stated

| maximum serum concentration [1, 6] [ng/mL] | time of maximum serum concentration post dosing [1, 6] | detection in serum at 2 hours post-dosing ([1]; mice, 2 hours post-dosing) | Substance | relation between dose administered SC and observed maximum CCL22 plasma concentration [2] | CCL22 release by RAW264.7 cells [3] | interaction with / recognition by Ig fraction of rabbit polyserum [4] | persistence in serum after subcutaneous administration [5] |
| --- | --- | --- | --- | --- | --- | --- | --- |
| 1800 | around 15 min | still detected | glatiramer acetate [Copaxone] | linear correlation | released CCL22 in a concentration dependent manner | interacts strongly | can be detected in serum of various species, including man, several hours after subcutaneous administration |
| – | – | – | plovamer [PI-2301] | – | – | – | can be detected in serum of various species, including man, several hours after subcutaneous administration |
